Here are results for six molecules from ChEMBL document CHEMBL1201862, “PubChem BioAssay data set” (2004).

Active and inactive are the calls of the source. Where only a bound is given, the exact number is not on record here.

The target of one assay is T1, Coagulation factor XII (Homo sapiens, UniProt P00748).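 Also: activated factor XIIa alpha cleaving a fluorogenic AMC peptide substrate; inhibitor potency from loss of enzyme activity.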
T1 sequence (P00748 whole entry): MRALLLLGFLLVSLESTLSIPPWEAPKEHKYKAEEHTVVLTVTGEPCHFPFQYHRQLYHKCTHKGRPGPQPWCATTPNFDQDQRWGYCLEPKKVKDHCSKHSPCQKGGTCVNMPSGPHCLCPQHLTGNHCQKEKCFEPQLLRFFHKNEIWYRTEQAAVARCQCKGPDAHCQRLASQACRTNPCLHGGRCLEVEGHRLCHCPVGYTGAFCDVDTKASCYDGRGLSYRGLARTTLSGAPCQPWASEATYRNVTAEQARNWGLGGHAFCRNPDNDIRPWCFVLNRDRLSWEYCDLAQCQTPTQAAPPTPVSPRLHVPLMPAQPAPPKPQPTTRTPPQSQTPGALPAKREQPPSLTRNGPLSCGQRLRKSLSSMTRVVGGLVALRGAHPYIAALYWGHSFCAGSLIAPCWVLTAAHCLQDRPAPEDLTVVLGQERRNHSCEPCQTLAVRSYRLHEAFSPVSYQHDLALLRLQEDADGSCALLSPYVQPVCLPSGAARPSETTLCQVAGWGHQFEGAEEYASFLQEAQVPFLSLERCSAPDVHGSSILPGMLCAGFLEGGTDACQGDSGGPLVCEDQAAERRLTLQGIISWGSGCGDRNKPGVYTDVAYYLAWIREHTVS
The assay is classed as functional.

For the next assay, the target named is Mu-type opioid receptor (Homo sapiens, UniProt P35372). The assay is classed as functional, cell-based.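 Also: U2OS cells with beta-arrestin recruitment to OPRM1 by beta-gal complementation.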
Sequence of Mu-type opioid receptor (P35372 whole entry): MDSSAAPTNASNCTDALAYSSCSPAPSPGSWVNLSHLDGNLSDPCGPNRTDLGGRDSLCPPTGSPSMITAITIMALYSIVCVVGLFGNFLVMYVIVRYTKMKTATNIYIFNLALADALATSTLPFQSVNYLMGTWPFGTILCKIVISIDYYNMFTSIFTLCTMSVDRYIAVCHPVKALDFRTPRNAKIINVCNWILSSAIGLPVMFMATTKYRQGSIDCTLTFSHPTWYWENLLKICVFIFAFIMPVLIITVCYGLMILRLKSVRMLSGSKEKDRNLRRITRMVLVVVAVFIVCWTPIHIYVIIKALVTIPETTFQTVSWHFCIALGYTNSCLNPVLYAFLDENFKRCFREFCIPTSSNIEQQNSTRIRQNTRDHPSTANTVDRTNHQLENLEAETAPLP
Assay [1] concerns the target 5-hydroxytryptamine receptor 2A (Mus musculus, UniProt P35363). Format: functional, cell-based.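 Also: CHO-K1 cells with tagged receptor and beta-arrestin; agonist potency measured as compound-induced activation of the receptor.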
The test system of the next assay is HEK293. Put plainly: EBV LMP1 TES2 canonical NF-kB signalling blockers – cell-based, HEK293, luciferase, cherry-pick, dose response (AID 588343). Format: functional. The following applies: Homo sapiens.
A short description of assay [2]: cells. Format: functional, cell-based.
The target of assay [3] is T2, Nuclear receptor subfamily 0 group B member 1 (Homo sapiens, UniProt P51843).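 Also: HEK293T cells transfected with SF-1 and DAX-1 plus StAR promoter luciferase reporter.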
T2 sequence (P51843 whole entry): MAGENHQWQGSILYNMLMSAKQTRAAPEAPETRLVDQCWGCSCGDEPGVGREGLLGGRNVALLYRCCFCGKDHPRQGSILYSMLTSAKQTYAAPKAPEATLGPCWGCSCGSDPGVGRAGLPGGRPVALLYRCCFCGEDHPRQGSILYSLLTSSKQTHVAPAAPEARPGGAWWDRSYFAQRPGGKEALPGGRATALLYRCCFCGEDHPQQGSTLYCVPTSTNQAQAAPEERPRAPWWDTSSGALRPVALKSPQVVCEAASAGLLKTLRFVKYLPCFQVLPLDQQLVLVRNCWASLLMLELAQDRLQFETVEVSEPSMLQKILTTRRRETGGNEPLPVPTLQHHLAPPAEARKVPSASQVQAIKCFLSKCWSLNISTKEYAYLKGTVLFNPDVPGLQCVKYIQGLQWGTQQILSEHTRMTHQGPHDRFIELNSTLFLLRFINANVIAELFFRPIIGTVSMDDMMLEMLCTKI
Format: functional, cell-based.

For another assay, the target named is Paired box protein Pax-8 (Homo sapiens, UniProt Q06710). The experiment in a line: PAX8 transcriptional activity inhibition in RMG-I – RMG-I cells, luciferase, cherry-pick, dose response (AID 687027).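 Also: luciferase reporter driven by Pax8 target thyroperoxidase promoter measured by SteadyGlo luminescence.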 Format: functional, cell-based.
Sequence of Paired box protein Pax-8 (Q06710 whole entry): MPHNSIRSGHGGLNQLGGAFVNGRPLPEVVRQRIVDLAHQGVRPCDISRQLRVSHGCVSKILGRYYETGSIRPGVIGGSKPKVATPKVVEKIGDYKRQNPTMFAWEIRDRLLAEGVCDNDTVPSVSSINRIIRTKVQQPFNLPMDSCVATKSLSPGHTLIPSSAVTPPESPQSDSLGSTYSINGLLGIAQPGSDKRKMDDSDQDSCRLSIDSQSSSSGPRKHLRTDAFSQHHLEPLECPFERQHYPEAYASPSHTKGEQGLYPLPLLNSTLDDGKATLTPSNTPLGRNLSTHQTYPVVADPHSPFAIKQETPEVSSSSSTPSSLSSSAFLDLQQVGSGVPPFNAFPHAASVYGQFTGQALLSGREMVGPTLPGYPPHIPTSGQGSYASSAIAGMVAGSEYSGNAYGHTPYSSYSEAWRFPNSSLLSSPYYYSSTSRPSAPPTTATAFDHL
Assay [4] is described as follows: blockade of melanocortin 4 receptor signaling – cell-based, plate reader, cherry pick, counter-screen for LGR2 antagonist project, dose response (AID 743444).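 Also: transfected HEK 293 cells stimulated with alpha-MSH peptide; potency of inhibitors of the alpha-MSH evoked signal.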 The assay is classed as functional. Background: The purpose of a counterscreen is to sort out artefacts and off-target activity.
A short description of assay [5]: toxicity toward HepG2 liver cells – cell-based, plate reader, cherry-pick, antagonist series, cytotoxicity control, dose response (AID 743416). The assay is classed as functional.
Assay [6] can be described thus: Vero E6 cell cytotoxicity, dose response, cytotoxicity control for non-replicating M. tuberculosis project, secondary assay (AID 492998). The following applies: Vero C1008. The assay is classed as functional, VeroE6.
Assay [7] is described as follows: THP-1 cell cytotoxicity, dose response, cytotoxicity control for non-replicating M. tuberculosis project (AID 489025). Format: functional.
A short description of assay [8]: cells. Format: functional.
Assay [9] can be described thus: blockers of bursicon-stimulated LGR2 cAMP reporter – cell-based, HEK293, CRE-luciferase reporter, cherry pick, set 2, dose response (AID 743343).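 Also: transfected cells were stimulated with diluted bursicon conditioned medium after compound addition.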 Format: functional. A general note: A reporter such as luciferase makes a cellular process visible.
Assay [10] in a line: viability loss in HEK293 cells – cell-based, plate reader, cherry-picked samples, cytotoxicity control, dose response (AID 743446). The assay is classed as functional.
Assay [11] can be described thus: A549 cell cytotoxicity, dose response, cytotoxicity control, plate reader, cherry-pick, antagonist series (AID 743412). Format: functional, cell-based.
Assay [12] can be described thus: Luminescence Cell-Based Dose Confirmation HTS to Identify Inhibitors of Platelet Dense Granule Release. [Related pubchem assays: 1663 (Primary HTS), 1678 (Summary of Project)]. Format: functional.
Assay [13] concerns the target Luciferin 4-monooxygenase (Photinus pyralis, UniProt P08659). Put plainly: inhibition of purified Photinus pyralis luciferase – biochemical, luminescence, dose response (AID 1891).
The nature of assay [14]: Luminescence Cell-Based Dose Retest to Confirm Inhibitors of Cancer Stem Cells. [Related pubchem assays (depositor defined):AID2717, AID2721]. Format: functional. The following applies: Homo sapiens.
Assay [15] in a line: NIH-3T3 fibroblast cytotoxicity, dose response, cytotoxicity control, cell-based, fluorescence, Alamar Blue, secondary assay (AID 2327).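 Also: NIH-3T3 mouse fibroblasts cultured with fluconazole at 8 µg/mL.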 The assay is classed as functional. In general terms: The colour change of resazurin is a common sign of viable cells or microbes.
Assay [16] is described as follows: fluconazole-exposed Candida albicans growth modulators – fluorescence, retest, confirmation (AID 2467). Format: functional, cell-based.
Assay [17] in a line: HIV-1 AD8 envelope cell-cell fusion blockers – cherry-pick, dose response (AID 652062).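 Also: luciferase signal from cell-cell fusion driven by HIV-1 clade B AD8 Env; potency is for inhibitors of fusion seen as a drop in luminescence.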 The assay is classed as functional, cell-based.
The nature of assay [18]: alpha-synuclein stem-loop luciferase translation blockers – H4 neuroglioma cells, luminescence, confirmation (AID 1988). The assay is classed as functional, cell-based.
Assay [19] can be described thus: viability loss in CEM21 cells – cell-based, CellTiter-Glo luminescence, cherry-picked, cytotoxicity control for viral fusion inhibitor project, dose response (AID 652042).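 Also: potency for signal decrease meaning cytotoxicity.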 Format: functional.
The nature of assay [20]: luciferase reporter signal suppression in cells – H4 neuroglioma cells, luminescence, dose response (AID 1990). Format: functional, cell-based.
Assay [21] can be described thus: blockers of HIV-1 envelope-mediated cell-cell fusion – cherry-pick, dose response (AID 652057). Format: functional, cell-based.
Assay [22] is described as follows: off-target signal loss in HeLa-CEM21 co-culture – HeLa F-luc CTL cells, cherry-picked, counter-screen for HIV-1 Env fusion inhibitor project, dose response (AID 652040).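 Also: potency for signal decrease marking cytotoxic or nonspecific inhibition.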 The assay is classed as functional, cell-based.
The test system of a further assay is INS1. The experiment in a line: INS-1E survival protection against cytokine death – cell-based, luminescence, retest, dose response (AID 449756).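 Also: cell death triggered by IL-1 beta plus TNF-alpha plus IFN-gamma mixture; protective hits raise ATP signal compared with cytokine alone wells.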 Format: functional. The following applies: Rattus norvegicus.
Assay [23] can be described thus: microbe, parasite or virus in culture. Format: functional. As to conditions: Mycobacterium tuberculosis.
The nature of assay [24]: blockers of HIV-1 ZM109 envelope-driven cell-cell fusion – HeLa effector, CEM target cells, luciferase, cherry-pick, dose response (AID 652058).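 Also: luciferase signal from HIV-1 Env mediated cell-cell fusion of effector and target cells.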 The assay is classed as functional, cell-based.
A short description of assay [25]: Luminescence Cell-Based Dose Response HTS to Identify Inhibitors of 5'UTR Stem-Loop Driven Prion Protein mRNA Translation in H4 Neuroglioblastoma Cells. [Related pubchem assays: 1827 (Project Summary), 1813 (Primary HTS)]. Format: functional.

Sequence of Luciferin 4-monooxygenase (P08659 whole entry): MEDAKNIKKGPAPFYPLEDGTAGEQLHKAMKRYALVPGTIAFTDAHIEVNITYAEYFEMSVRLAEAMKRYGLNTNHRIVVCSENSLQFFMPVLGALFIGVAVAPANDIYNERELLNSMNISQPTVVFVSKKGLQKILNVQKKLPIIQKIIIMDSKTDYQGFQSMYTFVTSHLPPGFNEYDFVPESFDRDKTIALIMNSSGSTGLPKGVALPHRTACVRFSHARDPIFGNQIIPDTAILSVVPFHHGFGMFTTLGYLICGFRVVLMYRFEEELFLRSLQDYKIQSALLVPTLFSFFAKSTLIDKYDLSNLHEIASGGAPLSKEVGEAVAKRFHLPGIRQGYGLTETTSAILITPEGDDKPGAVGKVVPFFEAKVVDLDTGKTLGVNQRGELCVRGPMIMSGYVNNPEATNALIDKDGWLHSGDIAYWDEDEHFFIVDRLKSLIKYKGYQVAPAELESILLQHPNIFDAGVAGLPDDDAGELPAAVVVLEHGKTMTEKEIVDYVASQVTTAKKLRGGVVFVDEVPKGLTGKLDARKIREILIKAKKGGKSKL
Sequence of 5-hydroxytryptamine receptor 2A (P35363 whole entry): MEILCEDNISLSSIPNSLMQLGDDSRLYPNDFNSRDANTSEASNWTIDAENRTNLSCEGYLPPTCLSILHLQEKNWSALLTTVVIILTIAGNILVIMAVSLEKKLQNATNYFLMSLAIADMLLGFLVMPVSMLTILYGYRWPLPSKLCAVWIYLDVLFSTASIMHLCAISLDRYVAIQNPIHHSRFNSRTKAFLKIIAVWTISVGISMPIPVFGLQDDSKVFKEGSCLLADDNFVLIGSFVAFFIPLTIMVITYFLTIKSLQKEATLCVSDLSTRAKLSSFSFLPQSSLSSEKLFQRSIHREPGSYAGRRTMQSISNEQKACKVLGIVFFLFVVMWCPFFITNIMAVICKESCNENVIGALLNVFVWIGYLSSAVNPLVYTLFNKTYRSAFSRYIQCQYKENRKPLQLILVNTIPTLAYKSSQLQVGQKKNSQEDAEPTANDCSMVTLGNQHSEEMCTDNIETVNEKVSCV

For the molecule `O=C(CN1CCN(c2ccccn2)CC1)Nc1ccc(Oc2ccccc2)cc1`, the IC50 (usually the concentration at which inhibition is half-maximal) at Coagulation factor XII was > 50 µM (inactive). In addition, the EC50 – broadly, the midpoint of the concentration-response curve – is 92.4 µM (inactive) at Mu-type opioid receptor and 1.17 µM (active) in assay [1].
As for `O=C(O)c1cc(/C=C/c2ccc(N3CCOCC3)cc2)nc2ccccc12`, the AC50 (in general, the concentration at which the activity in the assay is half-maximal) in the assay on HEK293 was 3.14 µM (active). Further, the IC50 (in the assay “cells [2]”; in [3]) was > 67.5 µM (inactive) in each case.
Take `CCOCC(=O)NC1CCc2cc(OC(=O)COCC)c(OC)c(OC)c2-c2ccc(SC)c(=O)cc21` (stereo not given): on Paired box protein Pax-8, the AC50 was < 0.26 µM (active). The IC50 is > 67.5 µM (inactive) in “cells [2]” and 0.244 µM (active) in assay [3].
Consider `Cc1cnc(NC(=O)c2ccccn2)s1`, for which the half-maximal activity concentration (AC50) in assay [4] was 6.72 µM (active); in assay [5], 27.8 µM (active); with HEK293 it was 8.48 µM (active); in assay [9] it was 7.9 µM (active); in assay [10], 30.8 µM (active); in [11], 24 µM (active). Moreover, the values for the CC50 in [6] and in [7] were > 20 µM (active) and > 40 µM (active), respectively. The half-maximal inhibitory concentration (IC50) in the assay “cells [8]” was 4.77 µM (active). In addition, the figures for the EC50 in assay [12] and in assay [13] were 18 µM (active) and 34.9 µM (active), respectively.
Consider `CC(=O)Oc1ccc2c(=O)c(-c3nc4ccccc4s3)coc2c1`, for which the AC50 in assay [14] was 6.27 µM (active). In addition, the IC50 (in the assay “cells [2]”; in [3]) was > 67.5 µM (inactive) in each case. For the same molecule, the EC50 is > 150 µM (inactive) in assay [15], 3.83 µM (active) in [12], 3.63 µM (active) in [13] and 3.08 µM (active) in [16].
With `CCN(CC)S(=O)(=O)c1cccc(NC(=O)Nc2cccc(C(F)(F)F)c2)c1`, the AC50 is 10.4 µM (active) in [17]; 3.36 µM (active) in assay [14]; 13.6 µM (active) in assay [19]; 14.9 µM (active) at Paired box protein Pax-8; 21.4 µM (active) in the assay with HEK293; 0.542 µM (active) in assay [21]. The AC50 in [22] was 7.47 µM (active); in the assay with INS1, 5.03 µM (active); in assay [24], < 0.26 µM (active). Further, the half-maximal effective concentration (EC50) in [18], in [20] and in assay [25] was > 120 µM (not active) in each case. Moreover, the CC50 in [23] is 13.8 µM (active).
